According to patent publication US20250129095A1, “ANNULATED 2-AMINO-3-CYANO THIOPHENES AND DERIVATIVES FOR THE TREATMENT OF CANCER” (Boehringer Ingelheim Int'l GmbH Corp., priority 2021, published 2025):
In brackets after ≈: the same amount, converted by molar mass. Like-named read-outs stand apart in the source and are kept apart here.

Legend:
KRAS (G12C)::SOS1 = molecular target: T1, KRAS (G12C)::SOS1 (Homo sapiens, UniProt P01116, C118S/C51S/C80L/G12C); assay: KRAS::SOS1 AlphaScreen binding assay, KRAS G12C; details: read-out: KRASG12C IC50
T1 construct: KRAS (G12C) 1-169, N-terminal 6His-tag for purification, cleaved off; 6His-tag (N, cleaved yes); made in house
T1 sequence (P01116 1-169 isoform P01116-2 G12C/C51S/C80L/C118S): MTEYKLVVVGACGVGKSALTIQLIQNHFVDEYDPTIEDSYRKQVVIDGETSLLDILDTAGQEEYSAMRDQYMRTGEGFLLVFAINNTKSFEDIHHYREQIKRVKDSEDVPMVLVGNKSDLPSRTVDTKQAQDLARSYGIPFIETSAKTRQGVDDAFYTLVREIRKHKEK
Source text: This assay can be used to examine the potency with which compounds according to the invention binding to (mutated) KRAS inhibit the protein-protein interaction between SOS1 and (mutated) KRAS e.g., KRAS WT, KRAS G12C, KRAS G12D, KRAS G12V, KRAS G13D. […] Low IC50 values in this assay setting are indicative of strong inhibition of protein-protein interaction between SOS1 and KRAS:
These assays measure the inhibitory effect of compounds on KRAS mutant protein-protein interactions using the Alpha Screen technology by Perkin Elmer
The following (mutant) enzyme forms of KRAS and interacting proteins are used in these assays at the given concentrations: • KRAS (G12D) 1-169, N-terminal 6His-tag, C-terminal avi-tag (Xtal BioStructures, Inc.); final assay concentration 10 nM and SOS1 564-1049, N-terminal 229 GST-tag, TEV cleavage site (Viva Biotech Ltd); final assay concentration 5 nM; • KRAS (G12C) 1-169, N-terminal 6His-tag for purification, cleaved off, C-terminal avi-tag, biotinylated, mutations: C51S, C80L, C118S (in house); final assay concentration 7.5 nM and SOS1 564-1049, N-terminal 229 GST-tag, TEV cleavage site (Viva Biotech Ltd); final assay concentration 5 nM; • KRAS (G12V) 1-169, N-terminal 6His-tag for purification, cleaved off, C-terminal avi-tag, biotinylated, TEV cleavage site, mutation: C118S, GDP loaded (in house); final assay concentration 10 nM and SOS1 564-1049, N-terminal 229 GST-tag, TEV cleavage site (Viva Biotech Ltd); final assay concentration 10 nM; • KRAS (G13D) 1-169, N-terminal 6His-tag for purification, cleaved off, C-terminal avi-tag, biotinylated, TEV cleavage site, mutation: C118S, GDP loaded (in house); final assay concentration 10 nM and SOS1 564-1049, N-terminal 229 GST-tag, TEV cleavage site (Viva Biotech Ltd); final assay concentration 10 nM; • KRAS (WT) 1-169, N-terminal 6His-tag for purification, cleaved off, C-terminal avi-tag, biotinylated, TEV cleavage site, mutation: C118S, GDP loaded (in house); final assay concentration 10 nM and SOS1 564-1049, N-terminal 229 GST-tag, TEV cleavage site (Viva Biotech Ltd); final assay concentration 10 nM.
Test compounds dissolved in DMSO are dispensed onto assay plates (Proxiplate 384 PLUS, white, PerkinElmer; 6008289) using an Access Labcyte Workstation with the Labcyte Echo 55×. For the chosen highest assay concentration of 100 μM, 150 nL of compound solution are transferred from a 10 mM DMSO compound stock solution. A series of eleven fivefold dilutions per compound are transferred to the assay plate, compound dilutions are tested in duplicates. DMSO are added as backfill to a total volume of 150 nL.
The assays run on a fully automated robotic system in a darkened room below 100 Lux. To 150 nl of compound dilution 10 μl of a mix including KRAS mutant protein, SOS1 (final assay concentrations see above) and GDP nucleotide (Sigma G7127; final assay concentration 10 μM) in assay buffer (1×PBS, 0.1% BSA, 0.05% Tween 20) are added into columns 1-24.
After 30 minutes incubation time 5 μl of Alpha Screen bead mix in assay buffer are added into columns 1-23. Bead mix consists of AlphaLISA Glutathione Acceptor Beads (PerkinElmer, Cat No AL109) and AlphaScreen Streptavidin Donor Beads (PerkinElmer Cat No 6760002) in assay buffer at a final assay concentration of 10 μg/ml each.
Plates are kept at room temperature in a darkened incubator. After an additional 60 minutes incubation time the signal is measured in a PerkinElmer Envision HTS Multilabel Reader using the AlphaScreen specs from PerkinElmer.
Each plate contains up to 16 wells of a negative control depending on the dilution procedure (platewise or serial) (DMSO instead of test compound; with KRAS mutant::SOS1 GDP mix and bead mix; column 23) and 16wells of a positive control (DMSO instead of test compound; with KRAS mutant::SOS1 GDP mix w/o bead mix; column 24).
As internal control known inhibitors of KRAS mutant::SOS1 interaction can be measured on each compound plate. […]

LOVO cells = assay: LOVO CTG proliferation assay (120 h) (CRC, G13D); assay type: cell-based; details: Homo sapiens
Description: LOVO cells (ATCC CCL-229) are dispensed into 384-well plates, flat and clear bottom (Greiner, PNr. 781091) at a density of 1000 cells per well in 60 μL DMEM (Sigma D6429)+10% Fetal Calf Serum (HyClone, PNr.: SH30084.03) and incubated at 37° C. in a CO2 incubator overnight. The next day, compounds (10 mM stock in DMSO) are added with the ECHO acoustic liquid handler system (Beckman Coulter), including DMSO controls. Plates are incubated for 120 h, and cell viability is measured using CellTiter-Glo luminescent cell viability reagent (Promega product code G7570). Viability (stated as percent of control) is defined as relative luminescence units RLU of each well divided by the RLU of cells in DMS0 controls. IC50 values are determined from viability measurements by non-linear regression using a four-parameter model.

[1] = Plasma protein binding assay (PPB), equilibrium dialysis; assay type: in vitro ADME; details: bovine, 10% FCS in PBS, read-out: PPB 10% FCS (% fu)
Description: Binding of test compounds to plasma was determined using equilibrium dialysis (ED) and quantitative mass spectrometry interfaced with liquid chromatography (LC-MS). In brief, ED was performed with dialysis devices consisting of two chambers separated by a semipermeable membrane with a molecular weight cut-off of 5-10 kg/mol. One chamber was filled with 10% FCS in PBS containing 1-10 μmol/L test compound and the other chamber was filled with phosphate-buffer saline (PBS) with or without dextran. The dialysis chamber was incubated for 3-5 hours at 37° C. After incubation, protein was precipitated from aliquots of each chamber and the concentration of test compound in the supernatant of the plasma-containing compartment (cserum) and of the buffer-containing compartment (cbuffer) was determined by LC-MS. The fraction of unbound test compound (not bound to plasma) (fu) was calculated according to the following equation: […]

[2] = Solubility measurement (DMSO solution precipitation method); assay type: physicochemical; details: aqueous buffer, kinetic from dmso stock
Description: The DMSO solution is diluted with an aqueous medium (McIlvaine buffer with pH=4.5 or 6.8) to a final concentration of 250 μM. After 24 h of shaking at ambient temperature a potentially formed precipitate is removed by filtration. The concentration of the test compound in the filtrate is determined by LC-UV methods by calibrating the signal to the signal of a reference solution with complete dissolution of the test compound in acetonitrile/water (1:1) with known concentration.

[3] = McIlvaine buffer pH 4.5, 24 h, read-out: Solubility [μg/ml] pH 4.5
[4] = McIlvaine buffer pH 6.8, 24 h, read-out: Solubility [μg/ml] pH 6.8

IC50 (KRAS (G12C)::SOS1) [nM] | IC50 (LOVO cells) [nM] | fraction unbound [1] | solubility at 24 h [2, 3] [µg/mL] | solubility at 24 h [2, 4] [µg/mL] | Structure (SMILES)
2 | 1120 | 0.61 |  |  | C[C@H](Oc1cc(Nc2cccnn2)nc(-c2noc3c2CCC[C@@]32CCCc3sc(N)c(C#N)c32)n1)[C@@H]1CCCN1C [II-18]
2 |  | 0.37 | 41 (≈ 70.4 µM) | < 1 | C[C@H](Oc1cc(Nc2ccccn2)nc(-c2noc3c2CCC[C@@]32CCCc3sc(N)c(C#N)c32)n1)[C@@H]1CCCN1C [II-16]
10 | 139 | 0.8 | > 144 | > 142 | C[C@H](Oc1cc(N(C)CCN(C)C)nc(-c2noc3c2CCC[C@@]32CCCc3sc(N)c(C#N)c32)n1)[C@@H]1CCCN1C [II-20]
1 | 130 | 0.3 | > 171 | > 165 | CO[C@@H]1C[C@@H]([C@H](C)Oc2cc(O[C@@H]3CNC3(C)C)nc(-c3noc4c3CCC[C@@]43CCCc4sc(N)c(C#N)c43)n2)N(C)C1 [II-30]
6 | 3380 | 0.59 | > 151 | > 146 | C[C@H]1CN(C)CCCN1c1cc(O[C@@H]2CNC2(C)C)nc(-c2noc3c2CCC[C@@]32CCCc3sc(N)c(C#N)c32)n1 [II-28]
2 | 216 | 0.52 |  |  | C[C@H](Oc1cc(O[C@@H]2CNC[C@@H]2F)nc(-c2noc3c2CCC[C@@]32CCCc3sc(N)c(C#N)c32)n1)[C@@H]1CCCN1C [II-29]
2 | 39 | 0.46 | > 168 | > 157 | C[C@H](Oc1cc(OCC2(N(C)C)COC2)nc(-c2noc3c2CCC[C@@]32CCCc3sc(N)c(C#N)c32)n1)[C@@H]1CCCN1C [II-22]

The remaining lines, values behind:

Structure (SMILES) | IC50 (KRAS (G12C)::SOS1) [nM] | IC50 (LOVO cells) [nM] | fraction unbound [1] | solubility at 24 h [2, 3] [µg/mL] | solubility at 24 h [2, 4] [µg/mL]
C[C@H](Oc1cc(Oc2nccs2)nc(-c2noc3c2CCC[C@@]32CCCc3sc(N)c(C#N)c32)n1)[C@@H]1CCCN1C [II-2] | 2 | 53 | 0.07 | > 109 | < 1
C[C@H](Oc1cc(Oc2cnccn2)nc(-c2noc3c2CCC[C@@]32CCCc3sc(N)c(C#N)c32)n1)[C@@H]1CCCN1C [II-7] | 2 | 15 | 0.28 | > 118 | 90 (≈ 154 µM)
C[C@H](Oc1cc(N[C@H]2CCOC2)nc(-c2onc3c2CCC[C@@]32CCCc3sc(N)c(C#N)c32)n1)[C@@H]1CCCN1C [Example I-4] | 3 | 575 | 0.6 | > 135 | 107 (≈ 186 µM)
C[C@H](Oc1cc(Oc2cccnc2)nc(-c2onc3c2CCC[C@@]32CCCc3sc(N)c(C#N)c32)n1)[C@@H]1CCCN1C [Example I-2] | 1 | 32 | 0.31 | > 125 | 89 (≈ 152 µM)
COCCOc1cc(O[C@@H](C)[C@@H]2CCCN2C)nc(-c2noc3c2CCC[C@@]32CCCc3sc(N)c(C#N)c32)n1 [II-5] | 2 | 117 | 0.5 | > 140 | 108 (≈ 191 µM)
C[C@H](Oc1cc(O[C@H]2CCOC2)nc(-c2noc3c2CCC[C@@]32CCCc3sc(N)c(C#N)c32)n1)[C@@H]1CCCN1C [II-4] | 2 | 93 | 0.54 | 80 (≈ 139 µM) | < 1
COC[C@H](C)Nc1cc(O[C@@H](C)[C@@H]2CCCN2C)nc(-c2onc3c2CCC[C@@]32CCCc3sc(N)c(C#N)c32)n1 [Example I-5] | 5 |  | 0.45 | 111 (≈ 192 µM) | 109 (≈ 189 µM)
C[C@H](Oc1cc(Sc2ncccn2)nc(-c2onc3c2CCC[C@@]32CCCc3sc(N)c(C#N)c32)n1)[C@@H]1CCCN1C [Example I-7] | 5 | 3240 | 0.61 | > 146 | 70 (≈ 117 µM)
C[C@H](Oc1cc(Oc2ccon2)nc(-c2noc3c2CCC[C@@]32CCCc3sc(N)c(C#N)c32)n1)[C@@H]1CCCN1C [II-3] | 2 | 102 | 0.12 | > 138 | 42 (≈ 73.2 µM)
C[C@H](Oc1cc(Oc2cncnc2)nc(-c2noc3c2CCC[C@@]32CCCc3sc(N)c(C#N)c32)n1)[C@@H]1CCCN1C [II-1] | 1 | 433 | 0.19 | > 137 | > 124
C[C@H](Oc1cc(NCC2COC2)nc(-c2noc3c2CCC[C@@]32CCCc3sc(N)c(C#N)c32)n1)[C@@H]1CCCN1C [II-11] | 2 | 568 | 0.62 |  | 
C[C@H](Oc1cc(Nc2ccncn2)nc(-c2noc3c2CCC[C@@]32CCCc3sc(N)c(C#N)c32)n1)[C@@H]1CCCN1C [II-15] | 3 | 708 | 0.5 |  | 
C[C@H](Oc1cc(O[C@@H]2CNC2(C)C)nc(-c2noc3c2CCC[C@@]32CCCc3sc(N)c(C#N)c32)n1)[C@@H]1CCCN1C [II-9] | 2 | 99 | 0.52 |  | 
